For 16 compounds, EC50 results are on record in BindingDB's records for doi:10.1021/jm050855s (Glaxosmithkline, 2006).

This experiment in a line: Inhibition of HCV RNA replication in Huh7 cells.
Take `CCOC(=O)CNc1ccc2c(c1)c(O)c(C1=Nc3ccccc3S(=O)(=O)N1)c(=O)n2CCC(C)C` [[3-(1,1-dioxo-1,4-dihydrobenzo[1,2,4]thiadiazin-3-yl)-4-hydroxy-1-(3-methylbutyl)-1H-dihydroquinolin-6-ylamino]acetic acid ethyl ester]: the EC50 was determined as 265 nM. Then `O=c1c(C2=Nc3ccccc3S(=O)(=O)N2)c(O)c2ccccc2n1CCC1CC1` [1-(2-cyclopropylethyl)-3-(1,1-dioxo-1,4-dihydro-1-benzo[1,2,4]-thiadiazin-3-yl)-4-hydroxy-1H-quinolin-2-one], with 152 nM; and `O=c1c(C2=Nc3ccccc3S(=O)(=O)N2)c(O)c2ccccc2n1-c1ccccc1` [3-(1,1-dioxo-1,2-dihydrobenzo[1,2,4]thiadiazin-3-yl)-4-hydroxy-1-phenyl-1Hquinolin-2-one], with 774 nM; and `O=c1c(C2=Nc3ccccc3S(=O)(=O)N2)c(O)c2ccccc2n1Cc1ccoc1` [3-(1,1-dioxo-1,4-dihydrobenzo[1,2,4]thiadiazin-3-yl)-1-furan-3-ylmethyl-4-hydroxy-1H-quinolin-2-one], with 389 nM. With `CCCCn1c(=O)c(C2=NS(=O)(=O)c3ccccc3N2)c(O)c2ccccc21` [1-Butyl-3-(1,1-dioxo-1,4-dihydro-1lambda*6*-benzo[1,2,4]thiadiazin-3-yl)-4-hydroxy-1H-quinolin-2-one] the figure was 444 nM.

As to `CC(C)CCn1c(=O)c(C2=Nc3ccccc3S(=O)(=O)N2)c(O)c2cc(N)ccc21` [6-amino-3-(1,1-dioxo-1,2-dihydrobenzo[1,2,4]thiadiazin-3-yl)-4-hydroxy-1-(3-methylbutyl)-1H-quinolin-2-one], a half-maximal response (EC50) required 274 nM. This EC50 lies about 1.6-fold lower than the previous one.

In turn, `CC(C)CCn1c(=O)c(C2=Nc3ccccc3S(=O)(=O)N2)c(O)c2cc(Cl)ccc21` [6-chloro-3-(1,1-dioxo-1,2-dihydrobenzo[1,2,4]thiadiazin-3-yl)-4-hydroxy-1-(3-methylbutyl)-1H-quinolin-2-one] displayed an EC50 of 1200 nM. Compound `Cc1ccc2c(c1)c(O)c(C1=Nc3ccccc3S(=O)(=O)N1)c(=O)n2CCC(C)C` [3-(1,1-dioxo-1,2-dihydrobenzo[1,2,4]thiadiazin-3-yl)-4-hydroxy-6-methyl-1-(3-methylbutyl)-1H-quinolin-2-one] displayed an EC50 of 180 nM. Compound `CC(C)CCn1c(=O)c(C2=Nc3ccccc3S(=O)(=O)N2)c(O)c2c(F)cccc21` [3-(1,1-dioxo-1,2-dihydrobenzo[1,2,4]thiadiazin-3-yl)-5-fluoro-4-hydroxy-1-(3-methylbutyl)-1H-quinolin-2-one] showed an EC50 of 381 nM. With `CC(C)CCn1c(=O)c(C2=Nc3ccccc3S(=O)(=O)N2)c(O)c2cc(OCC(N)=O)ccc21` [4-[3-(1,1-dioxo-1,4-dihydrobenzo[1,2,4]thiadiazin-3-yl)-4-hydroxy-1-(3-methylbutyl)-2-oxo-1,2-dihydroquinolin-6-yloxy]acetamide] the figure was 511 nM; with `CC(C)CCn1c(=O)c(C2=Nc3ccccc3S(=O)(=O)N2)c(O)c2cc(NCC(=O)O)ccc21` [[3-(1,1-dioxo-1,4-dihydrobenzo[1,2,4]thiadiazin-3-yl)-4-hydroxy-1-(3-methylbutyl)-1H-dihydroquinolin-6-ylamino]acetic acid], 2490 nM. Regarding `CC(C)CCn1c(=O)c(C2=Nc3ccccc3S(=O)(=O)N2)c(O)c2cc(OCC#N)ccc21` [4-[3-(1,1-dioxo-1,4-dihydrobenzo[1,2,4]thiadiazin-3-yl)-4-hydroxy-1-(3-methylbutyl)-2-oxo-1,2-dihydroquinolin-6-yloxy]acetonitrile], the EC50 was found to be 298 nM.

In turn, `O=c1c(C2=Nc3ccccc3S(=O)(=O)N2)c(O)c2ccccc2n1CC1CCC1` [1-cyclobutylmethyl-3-(1,1-dioxo-1,2-dihydrobenzo[1,2,4]thiadiazin-3-yl)-4-hydroxy-1-1H-quinolin-2-one] yielded an EC50 of 241 nM.

In turn, `CC(C)CCn1c(=O)c(C2=Nc3ccccc3S(=O)(=O)N2)c(O)c2cc(F)ccc21` [3-(1,1-dioxo-1,4-dihydro-1lambda*6*-benzo[1,2,4]thiadiazin-3-yl)-6-fluoro-4-hydroxy-1-(3-methyl-butyl)-1H-quinolin-2-one] returned an EC50 of 261 nM. As to `Nc1ccc2c(c1)c(O)c(C1=Nc3ccccc3S(=O)(=O)N1)c(=O)n2CCC1CC1` [6-Amino-1-(2-cyclopropylethyl)-3-(1,1-dioxo-1,4-dihydrobenzo[1,2,4]thiadiazin-3-], the EC50 turned out to be 157 nM. In turn, `CC(C)CCn1c(=O)c(C2=Nc3ccccc3S(=O)(=O)N2)c(O)c2ccccc21` came in with an EC50 of 417 nM.

One may read the EC50 as the concentration giving half of the maximal effect.
